Assay: gradient 5% acetonitrile 3 min, to 50% in 2 min, to 85% in 15 min, held 3 min, 100 µL/min
Conditions: column: Zorbax Extend-C18 2.1 x 50 mm; eluents: water / acetonitrile, 0.1% formic acid
Method in brief: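 Mixtures of ~100 pure standards were chromatographed on a Zorbax Extend-C18 column (2.1 × 50 mm, 1.8 μm) at 100 μL/min using water and acetonitrile, each with 0.1% formic acid. Detection used a quadrupole time-of-flight mass spectrometer in positive and negative ionization mode, and data collection spanned 3 months. Retention time was obtained from adduct peaks picked computationally and each checked manually.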

| RP-LC retention time [s] | Compound |
| --- | --- |
| 826 | Cc1ccccc1S(=O)(=O)N1CCC(N2CCN(Cc3ccccc3)C(=O)C2=O)CC1 |
| 1020 | Cc1ccc(-c2cn(CC(=O)N3CCN(c4cccc(C)c4)CC3)c(=O)o2)cc1 |
| 804 | O=C(Cc1cccs1)Nc1ccc(N2CCN(C3CCCCC3)C2=O)nc1 |
| 656 | Cc1noc(C)c1C1CCCN1C(=O)NC(C)C (configuration not stated) |
| 1120 | CCc1ccc(C(=O)Nc2cc(-c3ccn[nH]3)sc2C)cc1 |
| 897 | COc1ccc(-c2nnc(-c3ccc(Cl)c(S(=O)(=O)N4CCOCC4)c3)o2)cc1 |
| 1210 | CCCn1nnc(NCc2ccc(-c3cc(Cl)cc(Cl)c3)o2)n1 |
| 828 | CCCc1noc(-c2ccnc(-n3ncc(C(=O)NCC)c3C)c2)n1 |
| 1020 | CCN(CC)C(=O)c1cnc2nc(C)ccc2c1Nc1ccc(CC(=O)O)cc1 |
| 783 | COc1cc2c(cc1OC)C(C(=O)Nc1ccc3c(c1)OCCO3)C(c1cccs1)N(C)C2=O (configuration not stated) |
| 690 | O=C(Nc1cccc(-c2ccc(N3CCCC3)nn2)c1)Nc1c(F)cccc1F |
| 854 | COC(=O)c1ccc(NC(=O)C2CCN(S(=O)(=O)c3ccc4c(c3)sc(=O)n4C)CC2)cc1 |
| 588 | COCCNC(=O)C1CCCN(c2cnc3nccnc3c2)C1 (configuration not stated) |
| 702 | CCOC(=O)CCC(=O)Nc1ccc(-c2nnc(N(C)c3ccccc3)s2)cc1 |
| 874 | CCc1nc(N2CCCC2=O)sc1C(=O)NCc1ccccc1Cl |
| 782 | O=C(NCC1CCOCC1)c1ccc2ccccc2n1 |
| 778 | Cn1cc(CN2CCC(C(=O)NCCC3=CCCCC3)CC2)c2cc(Cl)ccc21 |
| 754 | Cc1cccc(C)c1-n1nnc(C(=O)NCC2CCCO2)c1C (configuration not stated) |
| 581 | CCN1CCN(CCCNC(=O)c2nnc(-c3ccc(S(=O)(=O)N4CCCC4)cc3)o2)CC1 |
| 705 | CCCC(=O)N1CCc2c(c(-c3nnc(SC)n3CC)nn2C)C1 |
| 811 | O=C(Cn1nc2ccc(C(=O)NCc3ccccc3)cn2c1=O)NCCC1=CCCCC1 |
| 1130 | CCn1nccc1-c1cccc(-c2noc(-c3cccs3)n2)c1 |
| 700 | COc1cc(C)c(Cl)cc1S(=O)(=O)Nc1ccc(-c2cn3ccc(C)nc3n2)cc1 |

| RP-LC retention time [s] | Compound |
| --- | --- |
| 716 | Cc1cc(NC(=O)CSc2nnc(Cc3ccccc3)o2)no1 |
| 900 | O=C(Nc1cc(C(F)(F)F)ccc1Cl)c1cccc(Oc2ncccn2)c1 |
| 848 | Cc1nc(C(=O)Nc2ccc(F)cc2)c(C)o1 |
| 941 | Cc1noc2nc(CCC(=O)NC(C)c3ccccc3)nc(N3CCC(C)CC3)c12 (configuration not stated) |
| 816 | COc1cccc(C(=O)Nc2ccc3c(c2)Sc2ncccc2C(=O)N3C)c1OC |
| 599 | CC(NC(=O)Cc1c(F)cccc1Cl)C(=O)N1CCN(c2ccccn2)CC1 (configuration not stated) |
| 902 | O=C(c1nnc(-c2ccc(S(=O)(=O)N3CCCC3)cc2)o1)N1CCCCCC1 |
| 999 | COc1ccc(NS(=O)(=O)c2c(C)nn(-c3ccc(-c4ccc(C)cc4)nn3)c2C)cc1F |
| 655 | COCCc1nnc(NC(=O)COc2ccc(Cl)cc2)o1 |
| 756 | COc1ccc(C(=O)NC(c2ccccc2)c2nnc(N3CCCC3)o2)cc1 (configuration not stated) |
| 1190 | CC1Oc2ccccc2N(Cc2nc(-c3ccc(Cl)c(F)c3)no2)C1=O (configuration not stated) |
| 727 | CCCNC(=O)C1CCCN(c2nc3ncn(CC(=O)Nc4c(C)cccc4CC)c(=O)c3s2)C1 (configuration not stated) |
| 1090 | CCOc1ccccc1-n1nnc(C(=O)OCc2nc(-c3ccccc3)oc2C)c1C |
| 645 | CCOC(=O)CC(NC(=O)NCc1ccnc(N2CCCCC2)c1)c1ccccc1 (configuration not stated) |
| 898 | COc1ccc(NC(=O)N2CCC(n3c(C(F)(F)F)nc4cccnc43)CC2)cc1 |
| 630 | CCOC(=O)N1CCN(Cc2c(NC(=O)c3ccccc3)sc(C)c2C)CC1 |
| 667 | CC(C)N1CCCC(Cn2cc(COc3ccc4c(c3)CCC4)nn2)C1 (configuration not stated) |
| 741 | O=C1NCCOCCN(C(=O)Nc2ccccc2)[C@@H]2CCCC[C@H]12 |
| 791 | CCn1nc(CNC(=O)Cc2ccccc2F)c2ccccc21 |
| 783 | O=C(Nc1ccccc1-c1cn2c(CN3CCNCC3)csc2n1)c1cnc2ccccc2n1 |
| 677 | COCCc1noc(-c2cnc3nc(C)ccc3c2Nc2ccccc2)n1 |
| 991 | CCCN1N=C(C(=O)N2CCCCCC2)S(=O)(=O)c2ccc(C)cc21 |
| 983 | CCN(C(=O)C1CCCN(S(=O)(=O)c2cc(-c3noc(C)n3)cs2)C1)c1ccccc1 (configuration not stated) |

| RP-LC retention time [s] | Compound |
| --- | --- |
| 849 | COc1cccc(CNC(=O)Cn2nc3c(Oc4ccc(Cl)cc4)nccn3c2=O)c1 |
| 839 | Cc1ccc(F)cc1NS(=O)(=O)c1cc2c(s1)CCN(C(=O)C1CC1)C2 |
| 570 | O=C(CCCn1nnc2ccccc2c1=O)Nc1nc2ccccc2[nH]1 |
| 1060 | CCOC(=O)c1noc2nc(C)nc(N(C)Cc3ccccc3)c12 |
| 645 | CCc1nc2c(c(=O)n1CC(=O)Nc1c(C)cccc1C)CN(Cc1ccccc1)CC2 |
| 906 | Cc1cc(C)n2nc(-c3ccccc3)c(C)c2n1 |
| 877 | CCOc1ccc(NC(=O)c2cc(C(C)C)n(C3CCS(=O)(=O)C3)n2)cc1 (configuration not stated) |
| 863 | C[C@H]1CN(C(=O)Nc2ccc(Cl)cc2)C[C@@H]1c1nc(-c2cccnc2)no1 |
| 647 | CCn1cc(C(=O)NCc2ccccn2)c(S(=O)(=O)N2CCSCC2)n1 |
| 858 | CC(C)CN1CCn2cc(S(=O)(=O)Nc3ccc(Cl)cc3F)cc2C1=O |
| 964 | CN1CCN(S(=O)(=O)c2ccc3nn(Cc4cccc(F)c4)c(=O)n3c2)CC1 |
| 618 | O=C(CCc1nnn2c1CN(C(=O)Nc1ccccc1F)CC2)NC1CC1 |
| 828 | CCn1nc(CNC(=O)C2CCCCC2)c2ccccc21 |
| 768 | CCOC(=O)c1ccc(NC(=O)NC2CC(=O)N(C3CCCC3)C2)cc1 (configuration not stated) |
| 974 | Cc1cccc(OCC(=O)N2CCc3cc(-c4ccno4)ccc32)c1 |
| 648 | O=C(c1cc(-c2ccncc2)n[nH]1)N1CCCC(C(=O)N2CC=C(c3ccccc3)CC2)C1 (configuration not stated) |
| 826 | Cc1cc(-c2nnc(-c3ccco3)o2)c(C)n1CC(=O)NCc1ccccc1 |
| 646 | Cc1ccc(-c2ncccc2CNC(=O)c2ccc3c(c2)OCO3)cc1 |
| 918 | COc1ccc(-c2nc(CCNS(=O)(=O)c3ccc(Cl)s3)cs2)cc1OC |
| 922 | COC(=O)c1sccc1NC(=O)C1CCCN(c2ncnc3c2nc2n3CCCCC2)C1 (configuration not stated) |
| 1010 | COc1ccc(-c2cc3c(=O)n(Cc4cc(C)ccc4C)ccn3n2)cc1OC |

Reference: the METLIN SMRT retention time set (Domingo-Almenara et al. 2019)
